Measured values as given in patent publication US20100081679A1, “DIAMINOPYRIMIDINES AS FUNGICIDES” (Bayer CropScience AG, priority 2007, published 2010).

Experiment: logP determination via retention times, calibrated with unbranched alkan-2-ones
Type: physicochemical
Conditions: linear gradient 10% to 95% acetonitrile
[1] = method *: HPLC reversed-phase C 18, temperature 40° C., mobile phase 0.1% aqueous formic acid and acetonitrile
[2] = method **: HPLC reversed-phase C 18, temperature 43° C., mobile phase 0.1% aqueous phosphoric acid and acetonitrile

| Compound | logP [1] | logP [2] |
| --- | --- | --- |
| O=C1CCCN1c1cccc(Nc2ncc(F)c(NC3CC3)n2)c1 [compound 599] | 1.37* |  |
| CC(C)(CF)C(=O)Nc1cccc(Nc2ncc(F)c(NC3CC3)n2)c1 [compound 600] | 1.55* |  |
| CC(=O)Nc1cc(Nc2ncc(F)c(NC3CC3)n2)ccc1C [compound 601] | 1.15* |  |
| Fc1cc(F)cc(Nc2ncc(Br)c(NC3CC3)n2)c1 [compound 602] | 3.35* |  |
| Fc1cc(F)cc(Nc2ncc(Cl)c(NCC3CC3)n2)c1 [compound 603] | 3.42* |  |
| COc1cccc(Nc2ncc(C#N)c(NC3CC3)n2)c1 [compound 604] | 2.48* |  |
| CS(=O)(=O)c1ccc(Nc2ncc(C#N)c(NC3CC3)n2)cc1 [compound 605] | 1.92* |  |
| COC(=O)Cc1cccc(Nc2ncc(C#N)c(NC3CC3)n2)c1 [compound 606] | 2.39* |  |
| CCC(=O)Nc1cccc(Nc2ncc(C#N)c(NC3CC3)n2)c1 [compound 607] | 1.94* |  |
| CNC(=O)c1cccc(Nc2ncc(C#N)c(NC3CC3)n2)c1 [compound 608] | 1.64* |  |
| CSc1cccc(Nc2ncc(C#N)c(NC3CC3)n2)c1 [compound 609] | 2.92* |  |
| CC(=O)c1cccc(Nc2ncc(C#N)c(NC3CC3)n2)c1 [compound 610] | 2.23* |  |
| CNC(=O)Oc1cccc(Nc2ncc(C#N)c(NC3CC3)n2)c1 [compound 611] | 1.92* |  |
| COC(=O)Nc1cccc(Nc2ncc(C#N)c(NC3CC3)n2)c1 [compound 612] | 2.06* |  |
| N#Cc1cnc(Nc2ccc3c(c2)CC(=O)N3)nc1NC1CC1 [compound 613] | 1.5* |  |
| CN(C)C(=O)c1cccc(Nc2ncc(C#N)c(NC3CC3)n2)c1 [compound 614] | 1.83* |  |
| CC(C)(C)OC(=O)NCc1ccc(Nc2ncc(C#N)c(NC3CC3)n2)cc1 [compound 615] | 2.77* |  |
| N#Cc1cnc(Nc2ccc(F)cc2)nc1NC1CC1 [compound 616] | 2.58* |  |
| CN(C)S(=O)(=O)c1cccc(Nc2ncc(C#N)c(NC3CC3)n2)c1 [compound 617] | 2.36* |  |
| CN1CCN(c2cccc(Nc3ncc(Cl)c(NCC4CC4)n3)c2)C1=O [compound 618] | 1.58* |  |

| Compound | logP [1] | logP [2] |
| --- | --- | --- |
| Clc1cnc(Nc2cccc(N3CCCC3)c2)nc1NC1CC1 [compound 619] |  | 2.23** |
| Fc1cccc(Nc2ncc(Cl)c(NC3CC3)n2)c1 [compound 620] | 3.15* |  |
| Brc1cnc(Nc2cccc(N3CCCC3)c2)nc1NC1CC1 [compound 621] |  | 2.38** |
| O=C(NCC(F)(F)F)c1cccc(Nc2ncc(Br)c(NC3CC3)n2)c1 [compound 622] | 1.91* |  |
| COC(c1cccc(Nc2ncc(C(F)(F)F)c(NC3CC3)n2)c1)C(F)(F)F (stereo not shown) [compound 624] | 3.74* |  |
| O=C1CCCN1c1cc(F)cc(Nc2ncc(Cl)c(NC3CC3)n2)c1 [compound 625] |  | 1.83** |
| CSc1ccc(Nc2ncc(Cl)c(NCC3CC3)n2)cc1Cl [compound 626] | 3.15* |  |
| C#Cc1cccc(Nc2ncc(C(F)(F)F)c(NC3CC3)n2)c1 [compound 627] | 3.36* |  |
| O=C(NC1CC1)c1cccc(Nc2ncc(Br)c(NC3CC3)n2)c1 [compound 628] | 1.49* |  |
| O=C(NC1CC1)c1cccc(Nc2ncc(Cl)c(NC3CC3)n2)c1 [compound 629] | 1.39* |  |
| O=C(NCC(F)(F)F)c1cccc(Nc2ncc(Cl)c(NC3CC3)n2)c1 [compound 630] | 1.8* |  |
| CCNC(=O)c1cccc(Nc2ncc(Cl)c(NC3CC3)n2)c1 [compound 631] | 1.35* |  |
| CC(C)NC(=O)Nc1ccc(Nc2ncc(Cl)c(NC3CC3)n2)cc1 [compound 632] |  | 1.32** |
| CC(C)c1cccc(Nc2ncc(Cl)c(NC3CC3)n2)c1 [compound 633] | 2.63* |  |
| CCc1cccc(Nc2ncc(Cl)c(NC3CC3)n2)c1 [compound 634] | 2.35* |  |
| COc1cc(Nc2ncc(C(F)(F)F)c(NC3CC3)n2)ccc1F [compound 635] | 2.99* |  |
| O=C1CCCN1c1cccc(Nc2ncc(I)c(NC3CC3)n2)c1 [compound 637] | 1.6* |  |
| N#Cc1cccc(Nc2ncc(C(F)(F)F)c(NC3CC3)n2)c1 [compound 638] | 2.95* |  |
| COc1cc(Nc2ncc(C(F)(F)F)c(NC3CC3)n2)ccc1NC(C)=O [compound 639] | 1.85* |  |
| COc1cccc(Nc2ncc(C(F)(F)F)c(NC3CC3)n2)c1 [compound 640] | 2.73* |  |

| Compound | logP [1] | logP [2] |
| --- | --- | --- |
| COc1ccc(Nc2ncc(C(F)(F)F)c(NC3CC3)n2)cc1 [compound 641] | 2.21*; | 2.41** |
| N#Cc1ccc(Nc2ncc(C(F)(F)F)c(NC3CC3)n2)cc1 [compound 642] | 2.99* |  |
| FC(F)(F)Oc1cccc(Nc2ncc(C(F)(F)F)c(NC3CC3)n2)c1 [compound 643] | 4.08* |  |
| CS(=O)(=O)c1ccc(Nc2ncc(C(F)(F)F)c(NC3CC3)n2)cc1 [compound 644] | 2.36* |  |
| CN(C)S(=O)(=O)c1ccc(Nc2ncc(C(F)(F)F)c(NC3CC3)n2)cc1 [compound 645] | 2.84* |  |
| CSc1ccc(Nc2ncc(C(F)(F)F)c(NC3CC3)n2)cc1Cl [compound 646] | 4.08* |  |
| CC(C)(C)C(=O)Nc1ccc(Nc2ncc(C(F)(F)F)c(NC3CC3)n2)cc1 [compound 647] | 2.46* |  |
| CC(=O)Nc1ccc(Nc2ncc(C(F)(F)F)c(NC3CC3)n2)cc1Cl [compound 648] | 2.18*; | 2.27** |
| CC(=O)Nc1cccc(Nc2ncc(C(F)(F)F)c(NC3CC3)n2)c1 [compound 649] | 1.78*; | 1.77** |
| CC(C)(C)C(=O)Nc1cccc(Nc2ncc(C(F)(F)F)c(NC3CC3)n2)c1 [compound 650] | 2.6* |  |
| CNC(=O)c1ccc(Nc2ncc(C(F)(F)F)c(NC3CC3)n2)cc1 [compound 651] | 1.78*; | 1.81** |
| CNC(=O)c1cccc(Nc2ncc(C(F)(F)F)c(NC3CC3)n2)c1 [compound 652] | 1.78*; | 1.78** |
| CSc1ccc(Nc2ncc(C(F)(F)F)c(NC3CC3)n2)cc1 [compound 653] | 3.1*; | 3.35** |
| O=S(=O)(c1cccc(Nc2ncc(C(F)(F)F)c(NC3CC3)n2)c1)N1CCCCC1 [compound 654] | 2.77* |  |
| CC(C)(C)C(=O)Cc1ccc(Nc2ncc(C(F)(F)F)c(NC3CC3)n2)cc1 [compound 655] | 3.33* |  |
| CC(=O)c1ccc(Nc2ncc(C(F)(F)F)c(NC3CC3)n2)cc1 [compound 656] | 2.7*; | 2.8** |
| CC(=O)c1cccc(Nc2ncc(C(F)(F)F)c(NC3CC3)n2)c1 [compound 657] | 2.57*; | 2.72** |
| O=C1NC(=O)C(c2ccc(Nc3ncc(C(F)(F)F)c(NC4CC4)n3)cc2)N1 (stereo not shown) [compound 658] | 1.58* |  |
| CNC(=O)Oc1cccc(Nc2ncc(C(F)(F)F)c(NC3CC3)n2)c1 [compound 659] | 2.06*; | 2.13** |
| COC(=O)Nc1cccc(Nc2ncc(C(F)(F)F)c(NC3CC3)n2)c1 [compound 660] | 2.16*; | 2.06** |
